According to paper PMC12362618, “Development of the First Small-Molecule Inhibitor Targeting Oncostatin M for Treatment of Breast Cancer” (Journal of Medicinal Chemistry, 2025):
Entries after “also recorded” stand apart in the source; their conditions may differ.

Legend:
[1] = tested on: OSM-mediated signaling (pSTAT3, pAKT, pJNK, pERK) in T47D cells; test: Immunoblot of OSM-mediated signaling in T47D cells; format: cell-based, human; details: SMI 10 μM, OSM 10 ng/mL, 30 min
Method: For immunoblot analysis, T47D breast cancer cells were treated and collected in the same manner as described above for the ELISA preparation. After lysate collection, samples were run on a 10% SDS-PAGE gel and transferred to a nitrocellulose membrane via semidry transfer. Blots were rinsed with DI H2O and allowed to completely dry at room temperature before blocking with LiCor Intercept PBS Blocking Buffer (LiCor, Lincoln, NE; Cat# 927-90001) for 1 h. After blocking, primary antibodies (1:1000) suspended in blocking buffer supplemented with 0.1% Tween were added, shaken at room temperature for 1 h, and stored at 4 °C overnight. Membranes were then washed 6 times for 5 minutes each with 1X PBS supplemented with 0.5% Tween while shaking at room temperature, and secondary antibodies (1:15,000) were applied and incubated for 1 h. Afterward, membranes were washed as previously described above and imaged at 700 nm using the LiCor Odyssey CLx Imaging System. Quantification of immunoblots was performed using the LiCor Image Studio software, normalizing to β-Actin, and calculating relative fold change compared to nontreated samples. Antibodies used included phospho-STAT3 (Y705) (Cell Signaling Technology, Danvers, MA; cat. no. 9145), phospho-AKT (S473) (Cell Signaling Technology, Danvers, MA; cat. no. 4060), phospho-JNK ([…]/[…]) (Cell Signaling Technology, Danvers, MA; cat. no. 4668), phospho-ERK (T202/Y204) (Cell Signaling Technology, Danvers, MA; cat. no. 9101), β-Actin (Cell Signaling Technology; cat. no. 3700), and donkey antirabbit IRDye 800CW (LiCor, Lincoln, NE; Cat# 925-32213).

[2] = tested on: OSM-induced pSTAT3 in MDA-MB-231 human breast cancer cells; test: pSTAT3 ELISA in MDA-MB-231 cells treated with OSM ± SMI; format: cell-based; details: SMI 10 μM, OSM 10 ng/mL, 30 min
Method: 2 High-throughput virtual screening identifies three novel compounds capable of interacting with site III of OSM. […] (F) Structure of parent SMI-10. Data are presented as mean ± SD relative to + OSM treatment, analyzed by one-way ANOVA with Tukey’s posttest *p < 0.05, **p < 0.01. To test the effect of SMIs in vitro, each SMI was incubated with OSM for a period of 1 h at 37 °C, and T47D and MDA-MB-231 human breast cancer cell lines were subsequently treated with OSM (10 ng/mL) and/or SMI-10 (10 μM) analogs for 30 min and measured for pSTAT3 levels via ELISA. The results of these assays are presented graphically in Figure and, for T47D cells, in Table as a percentage of reduction from +OSM alone. For phospho-STAT3 (pSTAT3) ELISAs, T47D MDA-MB-231, and MCF-7 cells were seeded in 12- or 24-well plates at 70–75% confluency and allowed to adhere overnight, after which cells were serum-starved with serum-free RPMI-1640 for 4 h. SMIs (10 μM in DMSO or serially diluted to specified concentrations from a 100 mM stock in DMSO) and human recombinant OSM (10 ng/mL; PeproTech; #300–10T-10UG) were incubated in serum-free RPMI-1640 medium for 1 h. After incubation, the SMI-10 analogs or SMI-10B13 and OSM were added to the serum-starved cells for 30 min. Immediately afterward, the cells were lysed using 1x PathScan Sandwich ELISA Lysis Buffer (Cell Signaling Technology; #7018S), collected, and stored at −20 °C. Lysates were analyzed for pSTAT3 levels using either the PathScan Phospho-STAT3 (Tyr705) Sandwich ELISA Antibody Pair kit (Cell Signaling Technology; #7146) or Human/Mouse Phospho-STAT3 (Y705) DuoSet IC ELISA (R&D Systems; DYC4607B), according to manufacture’s protocol. pSTAT3 expression was measured with absorbance at 450 nm and quantified by comparison relative to OSM-induced pSTAT3 levels. To calculate an IC50 for SMI-10B13, a standard curve was generated as described in the DuoSet IC ELISA datasheet to determine the concentration of pSTAT3.

OSM = molecular target: T1, OSM (Homo sapiens, UniProt P13725); test: Fluorescence quenching assay of SMI binding to OSM; details: average of three independent replicates, errors at 95% confidence level, read-out: KD (OSM-SMI dissociation constant)
T1 sequence (P13725 26-252): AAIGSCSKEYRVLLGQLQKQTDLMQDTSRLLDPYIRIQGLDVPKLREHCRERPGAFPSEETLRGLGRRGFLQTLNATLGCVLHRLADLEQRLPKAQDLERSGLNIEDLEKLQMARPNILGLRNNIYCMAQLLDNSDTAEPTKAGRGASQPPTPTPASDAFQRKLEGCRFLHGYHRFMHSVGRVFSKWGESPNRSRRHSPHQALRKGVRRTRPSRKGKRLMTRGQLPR
Method: To perform fluorescence quenching assays, 2 mL of 1 μM OSM solution in polymethylmethacrylate cuvettes was prepared by dilution of a concentrated stock solution of recombinant OSM with buffer solution (100 mM sodium chloride, 50 mM sodium phosphate, 50 mM freshly added DTT, pH = 6.6). Cuvettes were titrated with 5 μL increments of a 1 mM small molecule stock solution in DMSO, with a cuvette titrated with an equivalent volume of DMSO as a control. […] In cases where little to no significant quenching was observed, the titration was supplemented with 2.5 μL increments of a 10 mM small molecule stock solution to increase the concentration delivered. The fluorescence intensity measurements were obtained on a Cary Eclipse spectrofluorometer equipped with a Xenon arc lamp. Fluorescence intensities were measured by exciting at 280 nm (4 nm slit width) and recording the emission from 345 to 355 nm with a photomultiplier tube voltage of 700 V, unless otherwise noted. Each titration point was normalized to OSM’s native fluorescence intensity, corrected by adding the decrease in fluorescence intensity caused by dilution with DMSO, and the average value of the three replicates for each point was plotted against concentration of small molecule delivered and fit to a modified Stern–Volmer function as described by Charlier and Plapp. Binding affinity (K D) values were obtained […] from the fitting routine. All curve-fitting analysis was performed in GraphPad Prism 8.0.

[3] = tested on: OSM-induced pSTAT3 in T47D human breast cancer cells; test: pSTAT3 ELISA in T47D cells treated with OSM ± SMI; format: cell-based; details: T47D, 30 min; for Relative pSTAT3 Levels (Table 1, SMI-10A-10J): SMI 10 μM + OSM 10 ng/mL, ELISA, relative to +OSM, no-treatment blank subtracted; for Inhibition of OSM-induced pSTAT3 via ELISA: SMI 10 μM, OSM 10 ng/mL
Method: To test the effect of SMIs in vitro, each SMI was incubated with OSM for a period of 1 h at 37 °C, and T47D and MDA-MB-231 human breast cancer cell lines were subsequently treated with OSM (10 ng/mL) and/or SMI-10 (10 μM) analogs for 30 min and measured for pSTAT3 levels via ELISA. The results of these assays are presented graphically in Figure and, for T47D cells, in Table as a percentage of reduction from +OSM alone. For phospho-STAT3 (pSTAT3) ELISAs, T47D MDA-MB-231, and MCF-7 cells were seeded in 12- or 24-well plates at 70–75% confluency and allowed to adhere overnight, after which cells were serum-starved with serum-free RPMI-1640 for 4 h. SMIs (10 μM in DMSO or serially diluted to specified concentrations from a 100 mM stock in DMSO) and human recombinant OSM (10 ng/mL; PeproTech; #300–10T-10UG) were incubated in serum-free RPMI-1640 medium for 1 h. After incubation, the SMI-10 analogs or SMI-10B13 and OSM were added to the serum-starved cells for 30 min. Immediately afterward, the cells were lysed using 1x PathScan Sandwich ELISA Lysis Buffer (Cell Signaling Technology; #7018S), collected, and stored at −20 °C. Lysates were analyzed for pSTAT3 levels using either the PathScan Phospho-STAT3 (Tyr705) Sandwich ELISA Antibody Pair kit (Cell Signaling Technology; #7146) or Human/Mouse Phospho-STAT3 (Y705) DuoSet IC ELISA (R&D Systems; DYC4607B), according to manufacture’s protocol. pSTAT3 expression was measured with absorbance at 450 nm and quantified by comparison relative to OSM-induced pSTAT3 levels. To calculate an IC50 for SMI-10B13, a standard curve was generated as described in the DuoSet IC ELISA datasheet to determine the concentration of pSTAT3.

[4] = tested on: T47D and MCF-7 human breast cancer cells; test: MTS cell viability assay; format: cell-based
Method: Cell viability was assessed using the CellTiter 96 AQueous One Solution Cell Proliferation Assay (Promega, cat. no. G3580), following the manufacturer’s instructions. Briefly, T47D and MCF-7 human breast cancer cells were seeded in 96-well plates at a density of 10,000 cells/well in 100 μL of complete growth medium and allowed to adhere overnight. Cells were then treated with a serial dilution (100 μM to 0.1 nM) of SMI-10B, SMI-10B13, Temozolomide (positive control), or vehicle (DMSO) for 24 h. Following treatment, 20 μL of MTS reagent was added directly to each well, and plates were incubated at 37 °C in a humidified incubator with 5% CO2 and imaged after 1 h of incubation. Absorbance was measured at 490 nm by using a microplate reader. Cell viability was expressed as a percentage relative to the vehicle-treated controls, and experiments were performed in triplicate.

For `O=C(/C=C/c1cc(-c2ccc3c(c2)OCO3)c(-c2ccc3c(c2)OCO3)o1)c1ccccc1` [SMI-10C], the “Inhibition of OSM-mediated signaling cascades by immunoblot (words)” value (“Inhibition … (words)” for short) [1] was “capable of inhibiting multiple cascades; also recorded: significant reductions, near nontreated levels”, the “Inhibition of OSM-induced pSTAT3 via ELISA” value [2] was “capable of inhibiting OSM-induced pSTAT3” and the Kd (OSM) was 32.5 ± 3.4 µM. The “Relative pSTAT3 Levels (Table 1, SMI-10A-10J)” value (shortened to “Relative pSTAT3 Levels”) [3] was 11.9% and the “Inhibition of OSM-induced pSTAT3 via ELISA” value [3] was “capable of inhibiting OSM-induced pSTAT3”.

With `CCOC(=O)/C=C/c1cc(-c2ccc3c(c2)OCO3)c(-c2ccc3c(c2)OCO3)o1` [SMI-10D, Ethyl (E)-3-(4,5-Bis(benzo[d][1,3]dioxol-5-yl)furan-2-yl)acrylate] the “Inhibition … (words)” value [1] was “capable of inhibiting multiple cascades; also recorded: significant reductions, near nontreated levels”, the “Inhibition of OSM-induced pSTAT3 via ELISA” value [2] was “capable of inhibiting OSM-induced pSTAT3” and the Kd (OSM) was 20.9 ± 2.4 µM. For the same compound, the “Relative pSTAT3 Levels” value [3] was 9.0% and the “Inhibition of OSM-induced pSTAT3 via ELISA” value [3] was “capable of inhibiting OSM-induced pSTAT3”.

For `C(=N\Nc1ccccc1)/c1cc(-c2ccc3c(c2)OCO3)c(-c2ccc3c(c2)OCO3)o1` [SMI-10E, (E)-1-((4,5-Bis(benzo[d][1,3]dioxol-5-yl)furan-2-yl)methylene)-2-phenylhydrazine], the “Inhibition … (words)” value [1] was “capable of inhibiting multiple cascades; also recorded: significant reductions, near nontreated levels”, the “Inhibition of OSM-induced pSTAT3 via ELISA” value [2] was “capable of inhibiting OSM-induced pSTAT3” and the Kd (OSM) was 21.2 ± 2.7 µM. For the same compound, the “Relative pSTAT3 Levels” value [3] was 10.2% and the “Inhibition of OSM-induced pSTAT3 via ELISA” value [3] was “capable of inhibiting OSM-induced pSTAT3”.

In the case of `c1ccc(CNCc2cc(-c3ccc4c(c3)OCO4)c(-c3ccc4c(c3)OCO4)o2)cc1` [SMI-10F, N-Benzyl-1-(4,5-bis(benzo[d][1,3]dioxol-5-yl)furan-2-yl)methanamine], the “Inhibition … (words)” value [1] is reported as “capable of inhibiting multiple cascades; also recorded: significant reductions, near nontreated levels”, the “Inhibition of OSM-induced pSTAT3 via ELISA” value [2] is reported as “capable of inhibiting OSM-induced pSTAT3” and the Kd (OSM) is reported as 16.8 ± 4.1 µM. The “Relative pSTAT3 Levels” value [3] was 10.1% and the “Inhibition of OSM-induced pSTAT3 via ELISA” value [3] was “capable of inhibiting OSM-induced pSTAT3”.

With `O=C(/C=C/c1ccccc1)c1cc(-c2ccc3c(c2)OCO3)c(-c2ccc3c(c2)OCO3)o1` [SMI-10G, (E)-1-(4,5-Bis(benzo[d][1,3]dioxol-5-yl)furan-2-yl)-3-phenylprop-2-en-1-one] the “Inhibition … (words)” value [1] was “capable of inhibiting multiple cascades; also recorded: significant reductions, near nontreated levels”, the “Inhibition of OSM-induced pSTAT3 via ELISA” value [2] was “capable of inhibiting OSM-induced pSTAT3” and the Kd (OSM) was 21.9 ± 3.5 µM. The “Relative pSTAT3 Levels” value [3] was 8.8% and the “Inhibition of OSM-induced pSTAT3 via ELISA” value [3] was “capable of inhibiting OSM-induced pSTAT3”.

For `Cn1nnc2c(C(N)=O)ncn2c1=O` [Temozolomide, reference compound], the “Cytotoxicity / cell viability via MTS assay” value [4] was “moderate toxicity as concentration increases”.
